In publication PMC11951083, “Highly Specific Miniaturized Fluorescent Monoacylglycerol Lipase Probes Enable Translational Research” (Journal of the American Chemical Society, 2025):

Biological target: T1, MAGL (Homo sapiens, UniProt Q99685)
T1 sequence (Q99685 1-303): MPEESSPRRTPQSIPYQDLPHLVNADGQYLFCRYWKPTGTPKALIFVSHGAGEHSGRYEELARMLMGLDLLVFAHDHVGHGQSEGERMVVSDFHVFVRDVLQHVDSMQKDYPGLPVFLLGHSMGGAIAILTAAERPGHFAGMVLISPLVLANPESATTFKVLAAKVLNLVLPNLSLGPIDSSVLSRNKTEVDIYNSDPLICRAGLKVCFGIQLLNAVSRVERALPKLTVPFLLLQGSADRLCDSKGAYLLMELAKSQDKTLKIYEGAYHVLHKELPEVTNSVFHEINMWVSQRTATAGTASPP
Assay: Fluorescence polarization titration of probe 5 with purified hMAGL
Type: binding
Conditions: FP titration, probe 20 nM
Method: Fluorescence Polarization Assay
Determination of the Kd of the fluorescent probes
Commercially available purified hMAGL protein (Cepter Biopartners, Nutley, NJ, USA) was diluted in PBS-buffer pH 7.4 + 0.1% Tween 80, in a range of concentrations and incubated with compound 5 (20 nM = [L]T) at ambient temperature for 60 min. Fluorescence polarization was determined via a Tecan Spark multimode plate reader (Ex/Em = 482/502 nm , 7.5 nm bandwidth each) in a 384 flat black well plate (Corning); six measurements per data point. The experiment was carried out in triplicate. Data were analyzed via GraphPad Prism 5.0 software. K d of the fluoroprobe was calculated from the observed MAGL concentration at half-maximal FP (FP50) as follows.
K = [L][P] = 0.5 [L]T (FP50 − 0.5 [L]T) = FP − 0.5 [L]
Competitive FP Binding Assay hMAGL in PBS-buffer pH 7.4 + 0.1% tween 80 at a final concentration of 50 nM was incubated with a range of inhibitor DMSO solutions (5µL) (serial dilution 1:3) for 30 min at ambient temperature in a 384 flat black well plate (Corning). […] After 30 min incubation at ambient temperature, fluorescence polarization was determined as described above. Data were analyzed via GraphPad Prism 5.0 software, and IC50 values were converted to Ki according to Nikolovska-Coleska et al. 28 Under these conditions the assay performed with an average z´= 0.90. […]

**Q.** `O=C(N1CC2(CC(CC3=C4C=CC=[N+]4[B-](F)(F)n4cccc43)C2)C1)N1CC2(CC(n3cnc(C4CC4)n3)C2)C1` [Compound 5] was tested. Which Kd did it give?
**A.** 6.65 nM
